melting point | Structure (SMILES)
74 °C | O=[N+]([O-])c1cc2c(cc1Sc1ccccn1)CCC2
108 to 110 °C | CC(=O)c1sc(N2CCN(CCCC(F)(F)F)C2=O)nc1C
75 °C | CC[C@H](C)CCCCCOc1ccc(C(=O)Oc2ccc(O)cc2)cc1
73 °C | O=C(Cc1ccccc1Nc1c(Cl)cccc1Cl)OCCOCCO[N+](=O)[O-]
80 to 82 °C | Cc1ccc(S(=O)(=O)ON=C(CCN2C(=O)c3ccccc3C2=O)n2nc(C(C)(C)C)cc2N)cc1
95 to 96 °C | CCOC(=O)c1cc(Br)cc(C(=O)OCC)n1
201 to 202 °C | CCOC(=O)Cc1nnc(-c2cc3cccc(N(C)S(=O)(=O)c4cccs4)c3[nH]2)s1
155 to 156 °C | COc1cccc(-c2n[nH]c(-c3ccccc3CO)n2)c1
153 to 154 °C | COC(=O)c1nc(-c2ccc(Cl)cc2)n(-c2ccc(Cl)cc2Cl)n1
156 to 158 °C | CC(C)OC(=O)c1cc(-n2c(=O)c3c(n(C)c2=O)CCS3)c(F)cc1Cl
254 to 256 °C | CC(=O)NC[C@H]1CN(c2ccc(C(=O)c3cnc4cnccn34)cc2)C(=O)O1
43 to 46 °C | COC(=O)C=Cc1ccc(F)cc1
106 to 108 °C | CC(O)(CCN1CCOCC1)c1ccc(-c2ccc(Cl)cc2)cc1 (stereo unspecified)
161 to 162 °C | O=C1NCCCc2cc(OCCCN3CCN(Cc4ccc5ccccc5n4)CC3)ccc21
183 to 184 °C | O=C(O)Cc1ccc(OCCNCC(O)c2ccccc2)cc1 (stereo unspecified)
64 to 66 °C | Cc1cc(C)cc(-c2cc(C(=O)NCCCCCCCc3ccccc3)cc(-c3cc(C)cc(C)c3)c2OCCCC(=O)O)c1
192 °C | Cc1ccc(S(=O)(=O)OCC2CCN(C(c3ccccc3)(c3ccccc3)c3ccccc3)CC2)cc1
255 to 256 °C | COc1cc2sc(/C=C(\Oc3ccc(C(C)C)cc3)C(=O)O)cc2c(Cl)c1OC
62 to 64 °C | CCn1ncc2c1ncc1c(OCCCN(C)C)nc3cc(C)nn3c12
212 to 214 °C | Cc1cc2cc(N(C(=O)Nc3ccc(F)cc3F)c3ccccc3Cl)c(=O)oc2cc1C
38 to 39 °C | CCCCOc1cccc(CCNC(=O)C(Br)=Cc2ccccc2)c1
81 to 85 °C | COc1ccc2c(c1)C(C)(C)[C@H]1CCCN(C(C)=O)[C@H]1C2 (relative stereo)
53 °C | C=CC(CCc1ccccc1)NC(=O)OC(C)(C)C (stereo unspecified)
93.5 to 93.8 °C | CCCCCCOc1ccc(-c2ncc(C#N)cn2)cc1

melting point | Structure (SMILES)
126 to 127 °C | Cc1cc(-c2cc3cc(OCCNC[C@H](O)c4cccc(C(F)(F)F)c4)ccc3o2)no1
101 to 104 °C | COc1ccc(C(=O)Nc2ccc(C3(CNC(=O)c4cscn4)CCCC3)cc2)cc1OC
167 °C | CCCCNC(=S)NS(=O)(=O)c1cc2c(cc1OC)OCCC2CNC(=O)c1cc(Cl)ccc1OC (stereo unspecified)
71 to 73 °C | Nc1ccc(F)c(-c2ccccn2)c1F
128 to 131 °C | O=S(=O)(N1CCCC1)N1CCN(c2ccnc(CO)n2)CC1
74 to 76 °C | CC12CC(C#N)(CC1=O)C(C)(C)O2 (stereo unspecified)
134 to 136 °C | CCc1ccc(C2=NC(C)(C(C)C)C(=O)N2CC(=O)O)nc1 (stereo unspecified)
119 to 120 °C | CCOC(=O)Cc1c2n(c3ccc(F)cc13)C(c1ccc(SC)cc1)=NCC2
107 to 108 °C | Cc1c(Br)c(O)c(Cc2ccc(C(C)C)cc2)c(C)c1N(Cc1ccccc1)C(=O)CC(C)(C)C
242 °C | C#CCOc1cc(N2C(=O)c3ccccc3C2=O)c(F)cc1C#N
56.1 °C | CCCCCC(=O)Oc1ccc(-c2ccc(C#N)cc2)cc1
268 to 269 °C | Cn1c(=O)ccc2ccc(N)cc21
109 to 111 °C | CCc1c(-c2ccc(OC)cc2)c2ccc3cc(OC)cc1n32
165 to 167 °C | CCN(CC)CCOc1nc2ccccc2n(-c2ccc(Cl)cc2)c1=O
89 to 92 °C | CCC(C(=O)N(C)C)n1cc(C)c(-c2ccc(Cl)cc2C)n1 (stereo unspecified)
159 to 161 °C | Cc1cc(Oc2c(Cl)cc(C(F)(F)F)cc2Cl)nn1C(=O)OC(C)(C)C
68 to 71 °C | COc1ccc(-c2cc3ccccc3n2C(C)=O)cc1
65 °C | CCOC(=O)C(C)(C)Oc1ccc(OCc2ccccc2)cc1C=O
265 to 268 °C | Clc1ccc2c(NCc3ccccc3)nc(-n3ccnc3)nc2c1
156 °C | CCOC(=O)Cc1nnc(-c2ccc(OC)cc2)n1-c1ccc(OC)cc1
152 to 153 °C | COCCOCc1c(C=O)sc2c(=O)c(C(=O)NCc3ccc(Cl)cc3)cn(C)c12
211 to 212 °C | NC(=O)C1(c2ccc(Br)nc2)CCCC1
118 to 120 °C | CSC1Oc2cc3ccccc3cc2C1=O (stereo unspecified)
109 °C | CCOC(=O)c1c(Cl)c2cccnc2n(Cc2ccccc2)c1=O

melting point | Structure (SMILES)
58 to 59 °C | COc1cccc2c1C(C#N)C2 (stereo unspecified)
133 °C | Cc1ccccc1[C@H]1CC[C@@H](c2ccccc2)N1C(=O)CNC(=O)Nc1cccc(CC(=O)O)c1 (racemic)
195 to 196 °C | O=C1c2ccc(SCCO)cc2C(=O)c2cc3ccccc3cc21
200 °C | S=c1[nH]cnn1C1CCc2ccccc2C1 (stereo unspecified)
141 to 142 °C | COC(=O)c1ccc(/C=C(\C)c2ccc3c(c2)C(C)(C)CCN3C(C)=O)cc1
77.5 to 78.5 °C | CC1(C)CCc2c1cc(C=O)c(O)c2Br
171 to 182 °C | CN(C)S(=O)(=O)c1cccc(Cl)c1S(N)(=O)=O
79 to 81 °C | O=CCOc1ccc(Oc2ccccc2)cc1
177 to 179 °C | CCc1coc2c(-c3ccc(F)cc3)c(-c3ccc(S(C)(=O)=O)cc3)nn12
66 °C | COC(=O)CC(=O)c1cncc(OC)n1
224 to 225 °C | Cc1csc(-c2ccc(C(=O)Nc3ccc4cc(CN5CCCC5)cnc4c3C)cc2)c1
62 °C | COc1ccccc1-n1cnnc1C(F)(F)F
94 to 95 °C | COc1ccc(CCNC(=S)c2ccccc2C)cc1OC
146 to 148 °C | Cc1ccc(C2CC(n3cncn3)c3ccccc3N2)cc1 (stereo unspecified)
206 to 207 °C | Cc1ccccc1C(=O)Nc1ccc(C(=O)N2Cc3cccn3-c3ccccc32)cc1
112 to 113 °C | CC(=O)OCC(COC(C)=O)(NC(=O)OC(C)(C)C)C(=O)c1ccccc1
136 to 140 °C | CSc1c(C(C)C(=O)O)n(Cc2ccc(Cl)cc2)c2ccc(F)cc12 (stereo unspecified)
140 to 143 °C | CN(CCN1CCNC1=C(C#N)C#N)Cc1ccc(CN2CCCCC2)o1
235 °C | COc1ccc(S(=O)(=O)C2(C(=O)O)CCN(CCOc3ccccc3)CC2)cc1
235 to 237 °C | Cc1ccccc1C(=O)Nc1ccc(C(=O)N2CCCC(OCC(=O)N3CCSCC3)c3ccccc32)cc1 (stereo unspecified)
160 to 162 °C | O=C(Cc1ccccc1)N[C@@H]1C(=O)N[C@@H]1SCC(=O)c1ccccc1
153 to 155 °C | CCC12CCC(=O)C=C1c1c(cc(OCC(=O)OCC(C)=O)c(Cl)c1Cl)C2 (stereo unspecified)
75 to 78 °C | COC(=O)[C@@H](OS(=O)(=O)c1ccc(C)cc1)[C@H](O)C1CC1
114 to 116 °C | CSC1=NCCN1CC(C)O (stereo unspecified)

melting point | Structure (SMILES)
87 to 89 °C | N#CCc1cc(Cl)ncc1[N+](=O)[O-]
116 to 118 °C | C=CCS(=O)(=O)c1ccc(NC(C)=O)cc1
130 °C | CCOC(=O)C1CN(C(=O)c2cc(OC)c(OC)c(OC)c2)CCN1C(=O)c1cc(OC)c(OC)c(OC)c1 (stereo unspecified)
> 360 °C | Cc1nc2cc(-c3ccc(C=C4SC(=O)NC4=O)cn3)cc(C34CC5CC(CC(C5)C3)C4)c2o1
178 to 180 °C | Cc1cc2nc(Cl)c(Cl)nc2c(N)c1C
230 °C | CC(=O)Oc1cc(C)cc(C2(CC#N)N=NC=C2c2cc(NCC(C)OC(C)=O)nc(-c3cccnc3)n2)c1 (stereo unspecified)
90 to 92 °C | CCOC(=O)C(C(=O)OCC)C(N)c1ccc(Cl)cc1C(N)C(C(=O)OCC)C(=O)OCC (stereo unspecified)
137 to 140 °C | Cn1nc(-c2cc(C(=O)O)c(Cl)cc2F)c(Cl)c1OC(F)F
210 to 215 °C | CC(Cc1c[nH]c2ccccc12)(NC(=O)OC1C2CC3CC(C2)CC1C3)C(=O)O (stereo unspecified)
> 300 °C | CC(C)(C)Cn1c(=O)c(=O)[nH]c2cc([N+](=O)[O-])c(N)cc21
184 to 186 °C | Cc1nnc2c3c(c(NCCN4CCCC4)nn12)CCCC3
118 to 120 °C | Cc1cc2nccn2nc1OCCCS(=O)(=O)N1CCN(C)CC1
200 °C | Cc1[nH]c(C=O)c(C)c1CNC(=O)C(F)(F)F
62 to 64 °C | O=C(Oc1c(F)c(F)c(F)c(F)c1F)c1ccccn1
141 to 142 °C | CC(C)(Oc1cccc(OCCCc2cn(-c3ccc(C(F)(F)F)cn3)nc2-c2ccccc2)c1)C(=O)O
128 to 129 °C | COc1cc(/C=C/CO)ccc1OCc1nc(-c2ccco2)oc1C
> 260 °C | NC(=O)C1(C2c3[nH]c4ccc(Cl)cc4c3CCN2C=O)CCC1 (stereo unspecified)
166 °C | c1ccc(-n2c3ccccc3c3c2ccc2c4ccccc4n(-c4ccccc4)c23)cc1
200 to 201 °C | CNCc1cnc(Nc2n[nH]c3ccc(-c4ncccc4Cl)cc23)s1
192 to 195 °C | NS(=O)(=O)Cc1cccc2c1C(=O)OC2
117 to 119 °C | COC(=O)CCCc1ccc(OCCN(C)c2nc3ccccc3o2)cc1
147 to 149 °C | C=CCn1c(-c2c(Cl)cccc2Cl)nc(-c2ccncc2)c1-c1ccc(C)cc1
213 to 215 °C | CCn1c(=O)c(-c2c(Cl)cccc2Cl)cc2cnc(Nc3ccc(OC)cc3)nc21
158 °C | CSc1ccc2ccc(N)nc2n1

Structure (SMILES) | melting point
CCCCCC(C)C(C)c1cc(O)c2c(c1)OC(C)(C)C1=C2CN(CC(=O)NC(N)=O)CC1 (stereo unspecified) | 131 to 133 °C
COc1ccc2c3c1OC1C(O)C(C)(C)CC4C(C2)N(C)CCC341 (stereo unspecified) | > 265 °C
CC(C)CP1C(O)C(O)P(CC(C)C)C(O)C1O (stereo unspecified) | 173 to 175 °C
CC(CCCc1ccccc1)c1cc(O)c2c3c(c(=O)oc2c1)CCC(=O)C3 (stereo unspecified) | 163 to 164 °C
CC(C)(C)c1ccc(Cn2cc(C(=O)C(=O)O)c3cc(-c4cccc(Cl)c4)ccc32)cc1 | 138 to 139 °C

Reference: a melting point compilation (Tetko et al.; mined from patent text by program, amines drawn as free bases though some values may be those of a salt)
